In patent US12239643B2, “Therapeutic agent for inflammatory diseases, autoimmune diseases, fibrotic diseases, and cancer diseases” (MEIJI SEIKA PHARMA CO., LTD., priority 2018, dated 2025):
pIC50: −log10 of the molar value.

Legend:
[1] = test system: IL-5; assay: Cytokine suppression using whole human blood: IL-5 (CytoStim and CD28 antibody stimulus); format: cell-based; conditions: read-out: IL-5 Inhibitory Activity, Human Whole Blood (Test Example 3)
Method: The test compound dissolved in dimethyl sulfoxide was added to a 96-well plate, and RPMI-1640 medium and human peripheral blood containing sodium heparin were added, followed by culture at 37° C. under 5% CO2 for 1 hour. A medium containing only dimethyl sulfoxide instead of the test compound was added to the control well. […]
After collecting the culture supernatant after culturing, the amount of each cytokine was measured by the sandwich ELISA method. […]
The measurement results obtained by measuring the TNFα inhibitory activity and IL-5 inhibitory activity (50% inhibitory concentration) of the test compounds by the above method were evaluated in accordance with the following evaluated basis; A: less than 100 nM, B: 100 nM or more and less than 500 nM, and C: 500 nM or more. In addition, the measurement results obtained by measuring the IL-17A inhibitory activity and IL-4 inhibitory activity (50% inhibitory concentration) of the test compounds were evaluated in accordance with the following evaluated basis; A: less than 500 nM, B: 500 nM or more and less than 5000 nM, and C: 5000 nM or more.

[2] = test system: CEM-C1 (blood cancer (leukemia)); assay: Antitumor activity: growth inhibition of CEM-C1; format: cell-based; conditions: 120 h; CEM-C1, culturing for 5 days; read-out: 50% growth inhibitory concentration
Method: As antitumor activity, 50% growth inhibitory concentration of various cancer cells (CEM-C1 (blood cancer (leukemia)), SU-DHL-4 (blood cancer (lymphoma)), A549 (lung cancer), HCT-116 (colorectal cancer), and Daoy (brain tumor)) was calculated as follows. First, each of the above cancer cells was seeded on a 384-well plate and cultured overnight at 37° C. under 5% CO2. After that, the test compound was added at various concentrations on the next day, and each number of cells was measured after culturing for 5 days. The 50% growth inhibitory concentration was defined as the test compound concentration at which the number of cells measured is an intermediate value between the number of cells after culture for 5 days under the same conditions without the addition of the test compound and the number of cells at the time of seeding (before the start of culture). The measurement results obtained by measuring the 50% growth inhibitory concentration of the test compound by the above method were evaluated in accordance with the following evaluated basis; A: less than 10 μM, B: 10 μM or more and less than 50 μM, and C: 50 μM or more. As a result of using apremilast as the test compound, the evaluation was C in all cancer cells. On the other hand, as a result of using the compound obtained in Example 248 as the test compound, the evaluation was A in all cancer cells.

[3] = test system: histamine-induced vascular hyperpermeability, Crl:CD1 (ICR) mice; assay: Histamine-induced mouse vascular hyperpermeability model; format: in vivo; conditions: 10 mg/kg orally, histamine intradermally
Method: Evaluation was carried out using male Crl:CD1 (ICR) mice (6 to 7 weeks of age). First, before conducting the test, the hair on the back of the mice was shaved with a small hair clipper under isoflurane anesthesia (an appropriate amount of about 3% with an inhalation isoflurane anesthesia machine). Next, the mice were orally administered with 10 mg/kg (10 mL/kg) of the test compound dissolved or suspended in 0.5% w/v methylcellulose (0.5% MC), and intravenously administered with 0.4% Evans blue saline (10 mL/kg) after 1 to 4 hours, and approximately 2 minutes later, 15 mM histamine saline was intradermally administered to the dorsal neck as a vascular hyperpermeability substance (20 μL/site). […] The absorption value (620/670 nm) of the supernatant after centrifugation was measured with a plate reader, and the average absorption value of the blank group was subtracted therefrom. Using the resultant as the absorption value of each tissue lysate, the vascular permeability suppression rate was calculated by the following formula. […]
The measurement results obtained by measuring the vascular permeability suppression rate of the test compound by the above method were evaluated in accordance with the following evaluated basis; A: 90% or more, B: 80% or more and less than 90%, and C: less than 80%. […]

[4] = test system: DSS-induced colitis, C57BL/6J mice; assay: DSS-induced mouse colitis model; format: in vivo; conditions: oral once a day, DSS in drinking water
Method: Evaluation was carried out using male C57BL/6J mice (7 weeks of age). The mice were allowed to freely drink dextran sodium sulfate (DSS) dissolved in water for 5 days, and then allowed to freely drink water for 4 to 5 days. The test compound was dissolved or suspended in 0.5% w/v methylcellulose (0.5% MC) and orally administered once a day from the first day. The blank was a non-inflammation-induced group orally administered with 0.5% MC instead of the test compound and allowed to freely drink water instead of DSS, and the inflammation-induced control was a group orally administered with 0.5% MC instead of the test compound. The colitis inhibitory effect was evaluated by the disease activity index (DAI) score.

| Structure (SMILES) | pIC50 [1] | pIC50 [2] | vascular permeability suppression rate [3] | disease activity index (DAI) score [4] |
| --- | --- | --- | --- | --- |
| CCOc1cc([C@@H](CS(C)(=O)=O)N2C(=O)c3cccc(NC(C)=O)c3C2=O)ccc1OC [apremilast, reference compound] | ≤ 5.30 | ≤ 4.30 | C (C: less than 80%) |  |
| CC(C)(O)C(F)(F)Oc1ccc(-c2nccs2)c2oc(N3CC4CC(C3)N4)nc12 [Example 248, 1-((2-(3,6-Diazabicyclo[3.1.1]heptan-3-yl)-7-(thiazol-2-yl)benzo[d]oxazol-4-yl)oxy)-1,1-difluoro-2-methylpropan-2-ol] | > 6.30 | > 5.00 | A (A: 90% or more) | suppressed the DAI score at a lower concentration than that of apremilast |
